We go through 2 substances from publication PMC4882497 (British Journal of Pharmacology, 2016).

Bounds are passed on as bounds.

The test system of one series is male WT mice. The series is described as follows: Motor activity over 24 h in a novel cage. The class given is in vivo, mouse. Particulars: 1 mg/kg i.p., 24 h in novel cage, vs saline, n = 8 vs 7. The procedure:
Male WT mice were injected i.p. with either the long‐acting Y4 receptor agonist [K^30(PEG2)]hPP2‐36 (1mg kg^−1) or saline. Activity measurements were performed for 24 h in a novel cage. Mice were single‐housed in standard cages with food and water ad libitum. Movements of the mice were detected by an infrared sensor throughout light and dark phase (TSE LabMaster InfraMot, Bad Homburg, Germany).
To exclude non‐specific effects of [K^30(PEG2)]hPP2‐36 on motor activity that may compromise freezing detection during extinction training, we first injected male WT mice i.p. with [K^30(PEG2)]hPP2‐36 or saline and subsequently observed the activity of the mice for 24 h in a novel cage (Supporting Information Figure S4).

Another series has as its system WT (C57Bl/6NCrl) mice. Briefly: Cued fear extinction after peripheral injection, WT mice. Type of series: in vivo, mouse. The method, then:
(§1) Naïve WT (C57Bl/6NCrl) or Y4KO mice were used for fear conditioning experiments. Fear conditioning experiments were conducted during the light phase of the light/dark cycle in sound proof chambers (TSE Systems, Bad Homburg, Germany) by repetitive exposure of the mice to an auditory stimulus co‐terminating with a foot shock, as described in detail previously (Verma et al., 2012). Fear conditioning and context testing were performed in context A consisting of a transparent acrylic mouse conditioning chamber with a metal grid floor. The whole set‐up was enclosed by a sound attenuating chamber. Illumination was 80 lux, and chambers were cleaned with 70% ethanol. Fear recall as well as fear extinction and extinction recall was performed in a different context consisting of a dimly illuminated (10 lux) chamber with black, smooth walls and the floor cleaned with 1% acetic acid (context B).
(§2) On day 1 (context A), mice were subjected to a differential fear conditioning paradigm in which one auditory stimulus served as a CS because it was explicitly paired (CS+, 30 s white noise, 80 dB) with the US, whereas the second auditory stimulus was not paired (CS−, 30 s, 3.5 kHz, 80 dB). All animals received five CS− and five CS+ in an alternating order, starting with a CS+. The US co‐terminating with each CS+ consisted of a foot shock. […] On days 2 and 3, mice were tested for their context (context A for 15 min) and CS‐related fear memory (context B) respectively.
(§3) Fear conditioning was performed in WT (C57Bl6/NCrl) and Y4KO mice on day 1 (context A) as described in the previous paragraph. To avoid interference with postprandial released PP, mice were fasted overnight (16 h) before injection of the drug followed by fear extinction training. Water was freely available during the fasting period. Based on our previous results, a 16 h fasting period was required to reach our experimental aim (Verma et al., 2016). A control experiment was performed without food restriction (non‐fasting). [K^30(PEG2)]hPP2‐36 (1 mg·kg^−1) or saline was injected i.p. 60 min before behavioural testing, as indicated in the timeline of the respective experiments. For extinction experiments, mice were divided into two groups, receiving an i.p. injection of either the long‐acting Y4 receptor agonist [K^30(PEG2)]hPP2‐36 (1 mg·kg^−1) or saline in controls followed after 60 min by extinction training (extinction 1; 5 CS− and 25 CS+, context B). Mice were then tested on day 3 for extinction recall under drug‐free conditions by exposure to five CS+ (context B). To exclude any bias of group selection, another extinction session was performed on day 4 (extinction 2; 25 CS+, context B) followed by extinction recall on day 5 (five CS+; context B), both under drug‐free conditions. Spontaneous recovery (day 12) and renewal (day 13) were tested by exposing the mice to five CS+ in contexts B and A respectively.

Another series has as its system Y4KO mice. Briefly: Cued fear extinction after peripheral injection, Y4KO mice. Type of series: in vivo, mouse. The settings on record: 1 mg/kg i.p. 60 min before extinction, fasted 16 h, vs saline, n = 10 per group. The procedure: as §1
On day 1 (context A), mice were subjected to a differential fear conditioning paradigm in which one auditory stimulus served as a CS because it was explicitly paired (CS+, 30 s white noise, 80 dB) with the US, whereas the second auditory stimulus was not paired (CS−, 30 s, 3.5 kHz, 80 dB). All animals received five CS− and five CS+ in an alternating order, starting with a CS+. The US co‐terminating with each CS+ consisted of a foot shock. […]

The test system of another series is WT mice. The series is described as follows: Fear acquisition and consolidation after peripheral injection. Type of series: in vivo, mouse. Particulars: vs saline, n = 6 per group. The procedure:
as §1, §2
as §3, with “Spontaneous recovery (day 12) and renewal (day 13) were tested by exposing the mice to five CS+ in contexts B and A respectively.” left out

In series [1] the test system is orexin neurons in the lateral hypothalamus. Briefly: c-Fos/orexin dual-labelling immunohistochemistry in lateral hypothalamus after fear extinction, WT mice. The class given is in vivo, mouse. The settings on record: i.p. 60 min before fear extinction, fasted 16 h, brains removed 90 min after testing, n = 7 per group. The procedure: A separate group of WT and Y4KO mice were fasted overnight (16 h), injected i.p. with [K^30(PEG2)]hPP2‐36 or saline and subjected to extinction training 60 min later. Using a cryostat 40 μm coronal, free‐floating sections were cut for subsequent immunohistochemistry.
Immunohistochemical analysis was performed on free‐floating, PFA‐fixed, 40 μm thick coronal sections using indirect peroxidase labelling, as described previously (Tasan et al., 2011). The following antisera were used: polyclonal rabbit anti‐c‐Fos (1:20 000 PC38, Calbiochem) and polyclonal rabbit anti‐pan‐orexin (1:1000, Abcam ab6214, Lot:GR63996‐1). In brief, coronal sections were incubated free‐floating in 10% normal goat serum (Biomedica, Vienna, Austria) in Tris–HCl buffered saline (TBS; 50 mM, pH 7.2) for 90 min, followed by incubation with primary antiserum. […]
The number of c‐Fos positive cells was obtained bilaterally from six matched sections per animal showing the lateral hypothalamus, at a magnification of 400×, in multiple separate fields and mean values were calculated for each mouse. Results are presented as number of immunoreactivity positive cells per section and expressed as mean ± SEM. […]

The target in the next series is T1, hY1 (Homo sapiens, UniProt P25929).
T1 construct: expressed in transfected cells
T1 sequence (P25929 1-384): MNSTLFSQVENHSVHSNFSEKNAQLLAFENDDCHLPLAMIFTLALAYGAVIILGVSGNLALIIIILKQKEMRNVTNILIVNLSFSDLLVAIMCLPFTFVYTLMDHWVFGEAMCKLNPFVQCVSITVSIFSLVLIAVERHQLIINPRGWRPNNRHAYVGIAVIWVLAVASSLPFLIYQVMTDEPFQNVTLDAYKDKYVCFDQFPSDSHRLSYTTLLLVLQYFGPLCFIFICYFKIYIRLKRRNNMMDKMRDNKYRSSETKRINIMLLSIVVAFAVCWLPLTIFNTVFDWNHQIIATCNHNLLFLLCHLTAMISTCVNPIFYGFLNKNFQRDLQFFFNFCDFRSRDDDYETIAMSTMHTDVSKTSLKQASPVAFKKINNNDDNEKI
The series is described as follows: Inositol phosphate accumulation, COS-7 cells expressing hY1 and chimeric Gi/q protein. Particulars: agonist, inositol phosphate turnover, COS7 cells, 1 h stimulation, duplicate, at least two experiments. Type of series: cell-based. The procedure: (§4) Agonist activity at Y receptors was assessed by measuring inositol phosphate accumulation in COS‐7 cells, as described previously (Hofmann et al., 2013). […] Stably transfected COS‐7‐hYR‐GαΔ6qi4myr cells were cultivated in DMEM with 4.5 g·L^−1 glucose and L‐glutamine supplemented with 10% (v/v) heat‐inactivated FCS, 100 units mL^−1 penicillin, 100 μg mL^−1 streptomycin, 1.5 mg mL^−1 G418‐sulfate and 146 μg mL^−1 hygromycin B in a humidified atmosphere at 37°C and 5% CO2. COS 7 cells were a gift from Prof. Dr. Torsten Schöneberg (Leipzig University). Stable cell lines were prepared as described in Mäde et al., 2014. Cells were grown in 48‐well plates (90 000 cells in 500 μL per well) for 24 h. […] Cells were lysed applying 0.1 M sodium hydroxide for 5 min at room temperature followed by neutralization with 0.2 M formic acid. […] Eluates were diluted with scintillation cocktail Ultima Gold (Perkin Elmer) and measured by a scintillation counter (Tri‐Carb 2910 TR from PerkinElmer). […] For each compound, global mean EC50 and pEC50 ± SEM (n ≥ 2) were calculated from the entire normalized concentration‐response curves by nonlinear regression using GraphPad Prism 5.0. […]
(§5) Activity at the human receptors, hY1, hY2, hY4 and hY5, was measured by accumulation of IP3, after channeling cAMP inhibition to phospholipase C activity, in COS7 cells.

Another series concerns the target T2, hY2 (Homo sapiens, UniProt P49146).
T2 construct: expressed in transfected cells
T2 sequence (P49146 1-381): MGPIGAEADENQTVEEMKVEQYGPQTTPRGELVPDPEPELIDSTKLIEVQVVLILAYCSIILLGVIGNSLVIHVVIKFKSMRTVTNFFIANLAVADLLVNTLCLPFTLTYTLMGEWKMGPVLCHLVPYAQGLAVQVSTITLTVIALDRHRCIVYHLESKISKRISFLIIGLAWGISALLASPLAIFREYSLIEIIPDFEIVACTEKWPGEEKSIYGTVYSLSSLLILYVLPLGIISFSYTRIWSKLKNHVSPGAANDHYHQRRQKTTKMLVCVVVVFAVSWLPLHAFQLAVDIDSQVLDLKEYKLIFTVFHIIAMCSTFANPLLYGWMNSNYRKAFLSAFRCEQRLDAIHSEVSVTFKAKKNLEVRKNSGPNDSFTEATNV
The series is described as follows: Inositol phosphate accumulation, COS-7 cells expressing hY2 and chimeric Gi/q protein. The class given is cell-based. The settings on record: agonist, inositol phosphate turnover, COS7 cells, 1 h stimulation, duplicate, at least two experiments. The method, then:
as §4, §5

Another series addresses T3, hY4 (Homo sapiens, UniProt P50391).
T3 construct: expressed in transfected cells
The series is described as follows: Inositol phosphate accumulation, COS-7 cells expressing hY4 and chimeric Gi/q protein. Particulars: agonist, inositol phosphate turnover, COS7 cells; pEC50 ± SEM, n ≥ 2. Type of series: cell-based. The procedure: as §4, §5

For a further series, the target named is T4, hY5 (Homo sapiens, UniProt Q15761).
T4 construct: expressed in transfected cells
T4 sequence (Q15761 1-445): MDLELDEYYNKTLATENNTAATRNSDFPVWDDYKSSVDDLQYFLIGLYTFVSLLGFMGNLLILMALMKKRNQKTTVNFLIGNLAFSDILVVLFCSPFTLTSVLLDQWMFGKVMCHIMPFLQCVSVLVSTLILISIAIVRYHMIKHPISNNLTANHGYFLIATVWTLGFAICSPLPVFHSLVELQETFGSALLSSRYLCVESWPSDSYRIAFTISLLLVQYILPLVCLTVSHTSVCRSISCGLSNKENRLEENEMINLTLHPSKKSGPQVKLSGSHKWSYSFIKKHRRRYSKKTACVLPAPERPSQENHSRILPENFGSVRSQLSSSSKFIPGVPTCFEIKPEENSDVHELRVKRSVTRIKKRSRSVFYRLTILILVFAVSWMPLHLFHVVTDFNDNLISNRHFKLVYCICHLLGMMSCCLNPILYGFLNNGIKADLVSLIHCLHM
Briefly: Inositol phosphate accumulation, COS-7 cells expressing hY5 and chimeric Gi/q protein. The class given is cell-based. Particulars: agonist, inositol phosphate turnover, COS7 cells; pEC50 ± SEM, n ≥ 2. The procedure:
as §4, §5

Where [2] appears, read: i.p. immediately after fear acquisition.

T3 sequence (P50391 whole entry): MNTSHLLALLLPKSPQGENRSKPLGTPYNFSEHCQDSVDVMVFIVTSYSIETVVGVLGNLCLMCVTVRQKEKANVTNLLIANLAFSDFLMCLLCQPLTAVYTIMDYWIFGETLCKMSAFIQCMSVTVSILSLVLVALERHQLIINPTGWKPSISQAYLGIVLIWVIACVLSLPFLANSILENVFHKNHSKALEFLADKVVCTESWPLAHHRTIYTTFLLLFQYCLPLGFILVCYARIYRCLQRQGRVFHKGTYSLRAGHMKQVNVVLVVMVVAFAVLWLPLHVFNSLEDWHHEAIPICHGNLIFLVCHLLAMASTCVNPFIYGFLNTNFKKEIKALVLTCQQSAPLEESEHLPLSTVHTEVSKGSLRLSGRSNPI

With [K^30(PEG2)]hPP2‐36, in the series with male WT mice, the general motor activity result is given as “did not influence general motor activity”. In the series on WT (C57Bl/6NCrl) mice (1 mg/kg i.p. 60 min before extinction training, fasted 16 h, male WT mice, vs saline), the “cued fear extinction learning (freezing to CS)” value is on record as “significantly facilitated extinction learning”. Besides, the “freezing at CS13 during extinction” value in the series on WT (C57Bl/6NCrl) mice (1 mg/kg i.p. 60 min before extinction, fasted 16 h, WT mice, n = 10 per group) is on record as “reduced freezing at CS13”. Moreover, the “freezing during extinction recall” value in the series with WT (C57Bl/6NCrl) mice (1 mg/kg i.p. before extinction 1, fasted 16 h, recall 24 h later drug-free and non-fasting, male WT mice, vs saline) is “reduction of freezing during extinction recall”. Also, in the series with WT (C57Bl/6NCrl) mice (1 mg/kg i.p. before extinction training 1 (day 2), fasted 16 h, tested day 12, context B, male WT mice, n = 7 per group), the “freezing during spontaneous recovery” value is “reduced freezing”. Moreover, the freezing during renewal entry in the series with WT (C57Bl/6NCrl) mice (1 mg/kg i.p. before extinction training 1 (day 2), fasted 16 h, tested day 13, context A, male WT mice, n = 7 per group) is recorded as “reduced freezing”. Moreover, the “cued fear extinction learning, non-fasted” value in the series with WT (C57Bl/6NCrl) mice (i.p. 60 min before extinction training, non‐fasted WT mice, vs saline, n = 6 per group) was “did not facilitate extinction learning”. The “cued fear extinction (freezing to CS)” value in the series with Y4KO mice was “did not respond”. The “context fear after injection before fear acquisition” value with WT mice (i.p. 60 min before fear acquisition, 16 h fasting, tested 24 h later) is recorded as “did not alter”. For the same substance, in the series with WT mice (i.p. 60 min before fear acquisition, 16 h fasting, tested 48 h later), the “CS-induced fear after injection before fear acquisition” value was “did not alter”. In addition, in the series on WT mice (setting [2]), the “CS-induced freezing after injection immediately after fear acquisition (consolidation)” value is “did also not change” and the “context fear after injection immediately after fear acquisition (consolidation)” value is reported as “did also not change”. Moreover, the “percentage of cFos-positive orexin neurons in the lateral hypothalamus” value in series [1] was “specifically reduced”.
Broadly, the EC50 is the concentration that produces a half-maximal response. For “[K^30(PEG2)]hPP2‐36 (H-PLEPVYPGDNATPEQMAQYAADLRRYINK(MeO‑PEG 2 kDa)LTRPRY-NH2) [lysine 30 carries 2000 Da MeO-PEG]”, the EC50 with hY1 and with hY2 was above 1000 nM throughout. Also, the “hY4 pEC50” value with hY4 is reported as 8.0 ± 0.2. Also, the “hY5 pEC50” value with hY5 is recorded as 6.4 ± 0.1.
